pIC50: −log10 of the molar value. Counter-ions that a name gives are not always drawn.
Molecular target: T1, IP receptor (Homo sapiens, UniProt P43119)
T1 construct: one million cells in 160 μl aliquot of cell suspension were put in a well of 96 well plate; host or cells: HEL 92.1.7 human erythroleukemia cells (whole cells)
Assay: IP receptor binding/cAMP in HEL cells ([3H]-iloprost binding, Assay 1; iloprost-induced cAMP production, Assay 2)
Settings: compounds of about 40 to 90% purity, read-out: In vitro activity grade (IC50 class)
Experimental: [Measurement of the [^3H]-iloprost Binding to HEL Cells] (Assay 1)
A human erythloleukemia cell line, HEL 92.1.7, was purchased from American Type Culture Correction and maintained in RPMI-1640 medium (Gibco BRL) supplemented with 10% fetal calf serum (FCS), 2 mM glutamine, 4.5 g/L glucose, 10 mM Hepes, 1 mM sodium pyruvate, 100 U/ml penicillin, and 100 μg/ml streptomycin in a humidified 5% CO2 atmosphere at 37° C. Cells were collected with centrifugation and washed with binding assay buffer (BAB: 50 mM Tris-HCl, 5 mM MgCl2 (pH 7.5)). Cells were suspended at the density of 6.25×10^6 cells/ml in BAB, and one million cells in 160 μl aliquot of cell suspension were put in a well of 96 well plate (Falcon). Then, 20 μl of compound solution, 100 μM of iloprost (for non-specific binding), or buffer alone (total binding), diluted with 1% DMSO in BAB was added. Finally, another 20 μl containing [^3H]-iloprost (0.02 μCi, 0.5-1 pmol) in BAB was added and incubated at room temperature for 30 min with a gentle shaking. Cell suspension was then transferred to a well of MultiScreen plate with GF/C glass filters (Millipore) to harvest cells. Cells were washed twice with 200 μl of ice-cold BAB and the plate was kept at 55° C. for 30 min to dry filters. The filter in the well was punched out to a counting tube and 2 ml of Ultima Gold XR (Packard) was added. [^3H]-radio activity in the filter was measured by a liquid scintillation counter (Beckman, USA).
[Iloprost-Induced cAMP Production Assay in HEL Cells] (Assay 2)
HEL cells were collected with centrifugation and washed with cAMP assay buffer (CAB: Hank's balanced salt solution, 17 mM Hepes, 0.1% bovine serum albumin, 1 mM IBMX, 0.4% DMSO, and 1 mM L-ascorbic acid sodium salt (pH 7.4)). Cells were suspended at the density of 2.5×10^5 cells/ml in CAB, and twenty thousand cells in 80 μl aliquot of cell suspension were put in a well of 96 well plate (Falcon). Then, 10 μl of compound solution diluted with 1% DMSO in CAB or buffer alone was added. The plate was incubated at 37° C. for 30 min. Then, another 10 μl containing 100 nM iloprost in CAB or buffer alone was added and further incubated at 37° C. for 30 min. cAMP content in the well was measured by a cAMP ELISA kit (Applied Biosystems, USA).
The data corresponds to the compounds as yielded by solid phase synthesis and thus to levels of purity of about 40 to 90%. For practical reasons, the compounds are grouped in three classes of activity as follows: IC50=A<0.1 μM≦B<1 μM≦C

T1 sequence (P43119 whole entry): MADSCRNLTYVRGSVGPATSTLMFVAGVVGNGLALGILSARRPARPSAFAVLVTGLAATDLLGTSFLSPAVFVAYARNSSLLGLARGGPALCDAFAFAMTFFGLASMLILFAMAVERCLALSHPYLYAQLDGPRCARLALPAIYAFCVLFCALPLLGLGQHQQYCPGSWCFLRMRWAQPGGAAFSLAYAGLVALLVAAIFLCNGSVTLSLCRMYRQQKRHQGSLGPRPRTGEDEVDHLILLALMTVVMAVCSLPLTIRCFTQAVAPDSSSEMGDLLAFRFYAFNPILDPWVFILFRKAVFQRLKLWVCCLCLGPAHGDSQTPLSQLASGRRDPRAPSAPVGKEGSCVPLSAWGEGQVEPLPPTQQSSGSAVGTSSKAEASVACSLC

| SMILES | pIC50 |
| --- | --- |
| O=C(O)[C@@H](Cc1ccccc1)Nc1cc(-c2ccc(OCc3ccccc3)cc2)ncn1 [Example 1-1, N-{6-[4-(Benzyloxy)phenyl]pyrimidin-4-yl}-D-phenylalanine] | > 7.00 |
| O=C(O)[C@@H](Cc1ccccc1)Nc1cc(-c2ccc(OCC3CC3)cc2)ncn1 [Example 1-2, N-{6-[4-(Cyclopropylmethoxy)phenyl]pyrimidin-4-yl}-D-phenylalanine] | > 7.00 |
| CCCC[C@@H](Nc1cc(-c2ccc(OCc3ccccc3)cc2)ncn1)C(=O)O [Example 1-3, N-{6-[4-(benzyloxy)phenyl]pyrimidin-4-yl}-D-norleucine hydrochloride] | > 7.00 |
| O=C(O)[C@@H](Cc1ccccn1)Nc1cc(-c2ccc(OCc3ccccc3)cc2)ncn1 [Example 1-4, N-{6-[4-(benzyloxy)phenyl]pyrimidin-4-yl}-3-pyridin-2-yl-D-alanine] | > 7.00 |
| O=C(Nc1ccccc1)c1ccc(-c2cc(NC(Cc3ccccc3)C(=O)O)ncn2)cc1 (centres unmarked) [Example 1-5] | 6.00 to 7.00 |
| O=C(O)C(Cc1ccccc1)Nc1cc(-c2ccc(CCCc3ccccc3)cc2)ncn1 (centres unmarked) [Example 1-6] | > 7.00 |
| O=C(O)C(Cc1ccccc1)Nc1cc(-c2ccc(OCc3ccccc3)cc2)ncn1 (centres unmarked) [Example 1-7] | > 7.00 |
| O=C(O)C(Cc1ccccc1)Nc1cc(-c2ccc(Oc3ccccc3)cc2)ncn1 (centres unmarked) [Example 1-8] | > 7.00 |
| O=C(O)C(Cc1ccccc1)Nc1ncnc(-c2ccc(OCc3ccccc3)cc2)c1[N+](=O)[O-] (centres unmarked) [Example 1-9] | < 6.00 |
| O=C(O)C(Cc1ccccc1)Nc1cc(-c2ccc(-c3ccccc3)cc2)ncn1 (centres unmarked) [Example 1-10] | > 7.00 |
| CCC(C)C(Nc1cc(-c2ccc(OCc3ccccc3)cc2)ncn1)C(=O)O (centres unmarked) [Example 1-11] | 6.00 to 7.00 |
| O=C(O)C(Cc1ccccc1)Nc1cc(-c2ccc(OCc3ccccc3)cc2)nc(Cl)n1 (centres unmarked) [Example 1-21] | > 7.00 |
| O=C(O)C(Cc1c[nH]c2ccccc12)Nc1cc(-c2ccc(OCc3ccccc3)cc2)ncn1 (centres unmarked) [Example 1-37] | > 7.00 |
| Nc1nc(NC(Cc2ccccc2)C(=O)O)cc(-c2ccc(OCc3ccccc3)cc2)n1 (centres unmarked) [Example 1-38] | > 7.00 |
| O=C(O)C(Cc1ccccc1)Nc1cc(-c2ccccc2)ncn1 (centres unmarked) [Example 1-51] | 6.00 to 7.00 |
| O=C(O)C(Cc1ccccc1)Nc1cc(-c2ccc(F)cc2)ncn1 (centres unmarked) [Example 1-52] | 6.00 to 7.00 |

| SMILES | pIC50 |
| --- | --- |
| O=C(O)C(Cc1ccccn1)Nc1cc(-c2ccc(-c3ccccc3)cc2)ncn1 (centres unmarked) [Example 1-53] | > 7.00 |
| CSc1nc(NC(Cc2ccccc2)C(=O)O)cc(-c2ccc(OCc3ccccc3)cc2)n1 (centres unmarked) [Example 1-54] | 6.00 to 7.00 |
| O=C(O)C(Cc1ccccc1)Nc1cc(-c2ccc(Cl)cc2)ncn1 (centres unmarked) [Example 1-55] | 6.00 to 7.00 |
| CCOc1ccc(-c2cc(NC(Cc3ccccc3)C(=O)O)ncn2)cc1 (centres unmarked) [Example 2-18] | > 7.00 |
| CCCOc1ccc(-c2cc(NC(Cc3ccccc3)C(=O)O)ncn2)cc1 (centres unmarked) [Example 2-19] | > 7.00 |
| COc1cccc(COc2ccc(-c3cc(NC(Cc4ccccn4)C(=O)O)ncn3)cc2)c1 (centres unmarked) [Example 2-36] | > 7.00 |
| COc1cc(COc2ccc(-c3cc(NC(Cc4ccccn4)C(=O)O)ncn3)cc2)cc(OC)c1 (centres unmarked) [Example 2-37] | > 7.00 |
| O=C(O)C(Cc1ccccc1)Nc1cc(-c2ccc(OCC3CC3)c(F)c2)ncn1 (centres unmarked) [Example 2-41] | > 7.00 |
| CCCCC(Nc1cc(-c2ccc(OCC3CC3)c(F)c2)ncn1)C(=O)O (centres unmarked) [Example 2-42] | 6.00 to 7.00 |
| O=C(O)C(Cc1ccccn1)Nc1cc(-c2ccc(OCC3CC3)c(F)c2)ncn1 (centres unmarked) [Example 2-43] | 6.00 to 7.00 |
| O=C(O)[C@H](Cc1ccccc1)Nc1ccnc(-c2ccc(OCc3ccccc3)cc2)n1 [Example 3-1, N-{2-[4-(Benzyloxy)phenyl]-4-pyrimidinyl}phenylalanine] | 6.00 to 7.00 |
| O=C(O)C(Cc1cccc(OCCN2CCOCC2)c1)Nc1cc(-c2ccc(OCc3ccccc3)cc2)ncn1 (centres unmarked) [Example 4-2] | > 7.00 |
| O=C(O)[C@H](Cc1ccc(NC2=NCCN2)cc1)Nc1cc(-c2ccc(OCc3ccccc3)cc2)ncn1 [Example 6-1, N-{6-[4-(Benzyloxy)phenyl]pyrimidin-4-yl}-4-(4,5-dihydro-1H-imidazol-2-yl-amino)phenylalanine] | > 7.00 |
| O=C(O)C(Cc1ccccc1)Nc1cc(-c2ccc(CCc3ccccc3)cc2)ncn1 (centres unmarked) [Example 8-1, N-{6-[4-(2-Phenylethyl)phenyl]pyrimidinyl}phenylalanine] | > 7.00 |
| COc1ccc(-c2ccc(-c3cc(N[C@@H](Cc4ccccc4)C(=O)O)ncn3)cc2)cc1 [Example 11-1, N-[6-(4′-Methoxybiphenyl-4-yl)pyrimidin-4-yl]phenylalanine] | > 7.00 |
| O=C(O)C(Cc1ccccc1)Nc1cc(-c2ccc(-c3ccc(-c4ccccc4)cc3)cc2)ncn1 (centres unmarked) [Example 11-8] | < 6.00 |

Next, values leading:

| pIC50 | SMILES |
| --- | --- |
| > 7.00 | N#Cc1ccnc(Oc2ccc(-c3cc(N[C@@H](Cc4ccccc4)C(=O)O)ncn3)cc2)c1 [Example 12-1, N-(6-{4-[(4-cyanopyridin-2-yl)oxy]phenyl}pyrimidin-4-yl)phenylalanine] |
| < 6.00 | O=C(O)C(Cc1ccccc1)Nc1cc(-c2ccc(Oc3ncc(C(F)(F)F)cc3Cl)cc2)ncn1 (centres unmarked) [Example 12-2] |
| 6.00 to 7.00 | O=C(O)C(Cc1ccccc1)Nc1cc(-c2ccc(Oc3cc(C(F)(F)F)ncn3)cc2)ncn1 (centres unmarked) [Example 12-3] |
| < 6.00 | Cc1ccc(C#N)c(Oc2ccc(-c3cc(NC(Cc4ccccc4)C(=O)O)ncn3)cc2)n1 (centres unmarked) [Example 12-4] |
| 6.00 to 7.00 | O=C(O)C(Cc1ccccc1)Nc1cc(-c2ccc(Oc3ccc(C(F)(F)F)cn3)cc2)ncn1 (centres unmarked) [Example 12-5] |
| 6.00 to 7.00 | O=C(O)C(Cc1ccccc1)Nc1cc(-c2ccc(Oc3ccc4ccccc4n3)cc2)ncn1 (centres unmarked) [Example 12-6] |
| > 7.00 | O=C(O)C(Cc1ccccc1)Nc1cc(-c2ccc(NCc3ccccc3)cc2)ncn1 (centres unmarked) [Example 13-1, N-{6-[4-Benzylamino)phenyl]pyrimidin-4-yl}phenylalanine hydrochloride] |
| < 6.00 | O=C(O)[C@H](Cc1ccccc1)Nc1cc(-c2ccc(NS(=O)(=O)c3ccccc3)cc2)ncn1 [Example 15-1, N-(6-{4-[(Phenylsulfonyl)amino]phenyl}pyrimidin-4-yl)phenylalanine] |
| 6.00 to 7.00 | O=C(O)[C@H](Cc1ccccc1)Nc1cc(-c2ccc(NCC3CC3)cc2)ncn1 [Example 16-1, N-(6-{4-[(Cyclopropylmethyl)amino]phenyl}pyrimidin-4-yl)phenylalanine] |
| > 7.00 | O=C(O)C(Cc1ccccc1)Nc1cc(-c2ccc(CNc3ccccc3)cc2)ncn1 (centres unmarked) [Example 19-1, N-{6-[4-(Anilinomethyl)phenyl]pyrimidinyl}phenylalanine] |
| 6.00 to 7.00 | O=C(O)C(Cc1ccccc1)Nc1cc(-c2ccc(CN3Cc4ccccc4C3)cc2)ncn1 (centres unmarked) [Example 19-3] |
| > 7.00 | O=C(O)[C@H](Cc1ccccc1)Nc1cc(-c2ccc(COc3ccccc3)cc2)ncn1 [Example 20-1, N-{6-[4-(Phenoxymethyl)phenyl]pyrimidin-4-yl}phenylalanine] |
| 6.00 to 7.00 | c1ccc(COc2ccc(-c3cc(NC(Cc4ccccn4)c4nnn[nH]4)ncn3)cc2)cc1 (centres unmarked) [Example 27-2] |
| > 7.00 | O=C(O)C(Cc1ccccc1)Nc1cc(-c2ccc(OCc3ccccc3)cc2)on1 (centres unmarked) [Example 28-2] |
| < 6.00 | Cn1nc(-c2ccc(OCc3ccccc3)cc2)cc1NC(Cc1ccccc1)C(=O)O (centres unmarked) [Example 28-3] |
| < 6.00 | O=C(O)C(Cc1ccccc1)Nc1nc(-c2ccc(OCc3ccccc3)cc2)cs1 (centres unmarked) [Example 28-4] |
| > 7.00 | O=C(O)[C@H](Cc1ccccc1)Nc1nccc(-c2ccc(OCc3ccccc3)cc2)n1 [Example 29-1, N-{4-[4-(Benzyloxy)phenyl]pyrimidin-2-yl}phenylalanine] |

Tested on: not given
Assay: not given
Settings: not given

| melting point | SMILES |
| --- | --- |
| 180 to 183 °C (dec.) | O=C(O)[C@@H](Cc1ccccc1)Nc1cc(-c2ccc(OCC3CC3)cc2)ncn1 [Example 1-2, N-{6-[4-(Cyclopropylmethoxy)phenyl]pyrimidin-4-yl}-D-phenylalanine] |
| 142 °C | O=C(O)[C@@H](Cc1ccccn1)Nc1cc(-c2ccc(OCc3ccccc3)cc2)ncn1 [Example 1-4, N-{6-[4-(benzyloxy)phenyl]pyrimidin-4-yl}-3-pyridin-2-yl-D-alanine] |
| 228 to 231 °C (dec.) | O=C(Nc1ccccc1)c1ccc(-c2cc(NC(Cc3ccccc3)C(=O)O)ncn2)cc1 (centres unmarked) [Example 1-5] |
| 112 to 114 °C | O=C(O)C(Cc1ccccc1)Nc1cc(-c2ccc(CCCc3ccccc3)cc2)ncn1 (centres unmarked) [Example 1-6] |
| 175 to 178 °C | O=C(O)C(Cc1ccccc1)Nc1cc(-c2ccc(OCc3ccccc3)cc2)ncn1 (centres unmarked) [Example 1-7] |
| 214 to 217 °C (dec.) | O=C(O)C(Cc1ccccc1)Nc1cc(-c2ccc(Oc3ccccc3)cc2)ncn1 (centres unmarked) [Example 1-8] |
| < 80 °C | O=C(O)C(Cc1ccccc1)Nc1ncnc(-c2ccc(OCc3ccccc3)cc2)c1[N+](=O)[O-] (centres unmarked) [Example 1-9] |
| 146 to 148 °C (dec.) | O=C(O)C(Cc1ccccc1)Nc1cc(-c2ccc(-c3ccccc3)cc2)ncn1 (centres unmarked) [Example 1-10] |
| 56 °C | CCC(C)C(Nc1cc(-c2ccc(OCc3ccccc3)cc2)ncn1)C(=O)O (centres unmarked) [Example 1-11] |
| 116 to 118 °C | O=C(O)[C@H](Cc1ccccc1)Nc1cc(-c2ccc(Cc3ccccc3)cc2)ncn1 [Example 18-1, N-[6-(4-Benzylphenyl)pyrimidin-4-yl]phenylalanine] |

Source: patent publication US20060089371A1, “Phenyl or heteroaryl amino alkane derivatives as ip receptor antagonist” (Bayer HealthCare AG, priority 2002, published 2006)
